Experimental data published in a melting point compilation (Tetko et al.; mined from patent text by program, amines drawn as free bases though some values may be those of a salt).

Work on `CC=CCN(CCC12CC3CC(CC(C3)C1)C2)C(=O)NCCCc1ccncc1` yielded a melting point of 89.5 to 93.5 °C.
With `Nc1cc(C#Cc2ccccc2)c(-c2cc([N+](=O)[O-])c(N)cc2C#Cc2ccccc2)cc1[N+](=O)[O-]` the melting point was 252 to 253 °C.
`CN(C)Cc1ccc(CSCCNC2=NS(=O)(=O)C(C(=O)N(C)C)=C2N)o1` showed a melting point of 101 to 104 °C.
In the case of `CCc1cccc2c(/C=C(\C)C(=O)O)cc(OC)c(OC(C)=O)c12`, the melting point is reported as 148 to 150 °C.
`O=C(O)C1CCc2c(oc3cc(Cl)ccc23)C1` (centres undefined) showed a melting point of 189 to 191 °C.
For `Brc1ccc(C=Cc2cc3ccccc3s2)s1`, the melting point was 171 to 172 °C.
In the case of `CC(=O)C1CCC2=C(C1)C(=O)c1cc3ccccc3cc1C2=O` (centres undefined), the melting point is reported as 189 to 192 °C.
For `NS(=O)(=O)Cc1csc(-c2ccc(Cl)c(Cl)c2)n1`, the melting point was 165 to 167 °C.
Work on `CC(C)(Cc1cccc(Oc2cccc(CC(C)(C)C(=O)O)c2)c1)C(=O)O` yielded a melting point of 84 to 85 °C.
Work on `O=C(Nc1ccc(-n2nc(C(F)(F)F)cc2C(F)(F)F)cc1)c1ccc(O)cc1` yielded a melting point of over 245 °C.
With `CC(C)(C)C(OC(=O)Nc1ccccc1)C(=CC1CCCCC1)n1cncn1` (centres undefined) the melting point was 156 °C.
Compound `CNC(=O)NN=C(c1ccc([N+](=O)[O-])cc1)c1cc2c(cc1C[C@H](C)O)OCO2` has a melting point of 238 °C.
For `CCOC(=O)C(=O)c1cn(-c2ccccc2)c2ccccc12`, the melting point was 109 to 110 °C.
In the case of `CC1CC(c2cc3c(C(F)(F)F)cccc3s2)CCN1` (centres undefined), the melting point is reported as 106 to 108 °C.
Work on `CCOC(=O)CN(C)S(=O)(=O)c1ccsc1C(=O)OC` yielded a melting point of 84 to 85 °C.
Work on `Cc1ccc(-c2cc(F)c3c(c2)CC(CN)O3)cc1` (centres undefined) yielded a melting point of over 250 °C.
Compound `Cc1c(-c2ccccc2)oc2c(CN=[N+]=[N-])cccc2c1=O` has a melting point of 132 to 134 °C.
`CCC(c1oc2ccccc2c(=O)c1-c1cccc(F)c1)n1cnc2c(N)ncnc21` (centres undefined) showed a melting point of 102 to 107 °C.
Compound `CS(=O)(=O)c1ccc(-c2c(-c3ccccc3)sc3ccccc23)cc1` has a melting point of 173 to 174 °C.
Compound `CCNCC(=O)Nc1cccc2c1C(=O)c1c-2n[nH]c1-c1ccc(OC)cc1` has a melting point of 250 °C.
In the case of `O=C(NCc1ccccc1)C1Cc2cc(Br)cc3[nH]c(=O)c(=O)n1c23` (centres undefined), the melting point is reported as 152 to 153 °C.
Work on `CSc1ccc2c(c1)C(Cl)c1ccccc1C=C2` (centres undefined) yielded a melting point of 135 to 138 °C.
`COC(=O)C1=CC(=O)CCC1c1ccccc1OC` (racemic) showed a melting point of 76 °C.
Compound `O=c1oc2cc(O)ccc2c2c1CCCCC2` has a melting point of 189 to 190 °C.
For `CCCSC(C)(C(=O)O)c1ccc2oc(Cc3nc(-c4ccccc4)oc3C)cc2c1` (centres undefined), the melting point was 169 to 170 °C.
`COc1cc(OC)c(CNCCc2ccc(O)cc2)cc1O` showed a melting point of 170 to 173 °C.
`O=C1c2ccc(F)cc2CCc2cccnc21` gave a melting point of 116 to 119 °C.
`O=C1CCC(N2Cc3c(OCc4ccc(CN5CCOCC5)c(Cl)c4)cccc3C2=O)C(=O)N1` (centres undefined) showed a melting point of 240 to 242 °C.
Compound `O=C1C(=O)c2ccccc2C2=C1SCC1(CCN(c3cc(Cl)ncn3)CC1)O2` has a melting point of 172 to 174 °C.
In the case of `Nc1ccc(Cl)cc1C(=O)NCCCn1ccnc1`, the melting point is reported as 155 to 157 °C.
Compound `O=C(O)c1cccc(C=CC(=O)c2ccccc2)c1` has a melting point of 198 to 201 °C.
Work on `CN(C)c1ccc(C=CC(=O)c2ccc3c(c2)CCC3)cc1` yielded a melting point of 106 to 108 °C.
`CCOc1c(C)cc([N+](=O)[O-])cc1C` gave a melting point of 56 °C.
`CCOC(=O)c1ccc(COCc2csc3nc(C(=O)NCc4cccc(SC)c4)[nH]c(=O)c23)cc1` gave a melting point of 207 to 209 °C.
Work on `COC(=O)CCC#Cc1cc(Cl)ccc1NS(=O)(=O)c1ccc2c(c1)CCN2C(C)=O` yielded a melting point of 154 °C.
For `CCn1c2ccccc2c2cc(C(C#N)=C(C#N)c3ccc(C(F)(F)F)cc3)ccc21`, the melting point was 180 to 182 °C.
In the case of `O=[N+]([O-])c1ccc(C=Cc2ccc(Cl)c(Cl)c2)cc1`, the melting point is reported as 190 to 191 °C.
`O=C(Nc1ccc(Oc2ccnc(N3CCC4(CC3)OCCO4)n2)c2ccccc12)c1cc(F)cc(N2CCOCC2)c1` showed a melting point of 115 to 117 °C.
With `CNCc1cccc2c(=O)c(C)c(-c3ccccc3)oc12` the melting point was 97 to 99 °C.
`CN(CC1(c2ccccc2)CC(O)=CC(=O)O1)c1ccccc1` (centres undefined) showed a melting point of 118 to 120 °C.
In the case of `CC(CN1CC(=O)N(CN2CCSCC2)C(=O)C1)N1CC(=O)NC(=O)C1` (centres undefined), the melting point is reported as 206 to 208 °C.
Work on `CCOC(=O)C(C)=NNc1ccc(F)cc1F` yielded a melting point of 153 to 156 °C.
`CC(C)(C#N)c1cc(Cc2cccnc2)cc(C(C)(C)C#N)c1` showed a melting point of 82 to 84 °C.
`CCN1c2ncccc2C(=O)Nc2c(C)cc(N3CCC[C@H]3CO)nc21` showed a melting point of 238 to 240 °C.
For `CNC(=O)c1ccc(-n2nc(C(=O)NC3(C(=O)O)C4CC5CC(C4)CC3C5)cc2-c2c(OC)cccc2OC)c2ccccc12` (centres undefined), the melting point was 170 °C.
`CN(C)Cc1ccc(CSCCNC(=C[N+](=O)[O-])NCCCCCCCCCCCCNC(=C[N+](=O)[O-])NCCSCc2ccco2)o1` gave a melting point of 69 to 72 °C.
`O=[N+]([O-])c1cnccc1NCc1ccc(CO)o1` showed a melting point of 135 °C.
With `O=P(O)(O)C(F)(F)P(=O)(O)O` the melting point was 87 to 90 °C.
Compound `COC(=O)C1(c2ccccc2)CCN(CCNC(=O)N2C(=O)COCC2c2ccc(F)c(F)c2)CC1` (centres undefined) has a melting point of 113 to 117 °C.
In the case of `CC(C)OC(=O)Cn1c(=O)n(C)c(=O)n(-c2cc(N=c3sc(=S)n4n3CCCCC4)c(F)cc2Cl)c1=O`, the melting point is reported as 108 to 118 °C.
In the case of `CCCCN(Cc1ccc(-c2ccccc2-c2nnn[nH]2)cc1)c1nc(C)ccc1C(=O)O`, the melting point is reported as 175 to 177 °C.
For `CNC(=S)NCc1ccc(Br)nc1`, the melting point was 117 to 118 °C.
With `CSCCn1nc(-c2ccc(OCCCC(F)(F)F)cc2)oc1=O` the melting point was 105 °C.
`CN(C)CC1CN(c2ccccc2)NC1=O` (centres undefined) gave a melting point of 118 to 119 °C.
`CCOC(=O)Cn1c(-c2cc3c(cc2N)OCO3)nc2ccccc21` showed a melting point of 284 to 287 °C.
Compound `CCOc1cc(CC)ccc1C1CCN(CCCCNC(=O)c2sc(-c3ccc(C(F)(F)F)cc3)nc2CO)CC1` has a melting point of 150 °C.
`Clc1cccc(CC[C@H]2CNCCN2)c1` showed a melting point of 93 to 97 °C.
`CC1(C)Cc2nc(C3CC3)c(Cc3ccc(C(F)(F)F)cc3)c(-c3ccc(F)c(F)c3)c2C(O)C1` (centres undefined) showed a melting point of 126 to 127 °C.
`CCOC(=O)CC(=O)c1csc(-c2ccccc2)n1` gave a melting point of 66 to 68 °C.
Work on `CCOC(=O)C1=C(C=O)NC(C=O)=C(C(=O)OCC)C1c1ccccc1Cl` yielded a melting point of 85 to 86 °C.
For `COCCn1cc(-c2ccccc2)n(C(C)=O)c1=O`, the melting point was 73 to 75 °C.
Compound `O=c1cc(C(F)(F)F)c2ccc(NCc3ccccc3)cc2o1` has a melting point of 136 to 137 °C.
`O=C(Cc1ccccn1)c1ccccc1[NH+]([O-])C(=O)c1ccccc1` (centres undefined) gave a melting point of 192 to 194 °C.
`COC(=O)C#CC(=O)c1ccc2c(c1)OCO2` showed a melting point of 95 to 97 °C.
With `CN1Cc2c(-c3noc(CN4CCCC4)n3)ncn2-c2ccc(F)cc2C1=O` the melting point was 158 to 160 °C.
For `COc1ccc(S(=O)(=O)Nc2nc(-c3cccc4ccccc34)cs2)cc1`, the melting point was 98 to 100 °C.
Compound `O=Nc1ccc(NC2CCCCC2)cc1` has a melting point of 90 to 92 °C.
Work on `COc1ccc(S(=O)(=O)Nc2cccnc2Nc2ccc(C(=O)O)cc2)cc1` yielded a melting point of 248 to 250 °C.
For `Cc1cc(O)c(Oc2ccccc2C#N)cc1Br`, the melting point was 99 to 101 °C.
`CCC(c1ccncc1)N1CCCNS1(=O)=O` (centres undefined) gave a melting point of 90 to 105 °C.
Work on `CN1c2ccc(C=C(c3ccccc3)c3ccccc3)cc2Sc2cc(C=C(c3ccccc3)c3ccccc3)ccc21` yielded a melting point of 233 to 241 °C.
For `Clc1ccc2c(C3CCN(CCCCC4Cc5ccccc5C4)CC3)c[nH]c2c1`, the melting point was 139 to 140 °C.
Work on `CCOc1ccccc1-c1cc(NC(=O)C2CCN(CC)CC2)ncn1` yielded a melting point of 65 to 67 °C.
With `COc1c(Cl)ccc2c1C(O)(c1ccccc1Cl)C(=O)N2` (centres undefined) the melting point was 228 to 229 °C.
`CC(=O)Nc1ccc2c(c1)NC(=O)CC2(C)C` showed a melting point of 273 to 278 °C.
Compound `COc1cccc(CC(=O)O)c1OCCCc1cc(C(C)C)nn1Cc1ccc(Cl)cc1Cl` has a melting point of 101 to 102 °C.
With `CCN1C(=O)C(C)(C)C(=O)N(C)c2cc(CN(CCn3ccc4ccsc4c3=O)Cc3cnccc3C)ccc21` the melting point was 138 to 142 °C.
For `CCOC(=O)NC=Cc1ccc(OCC(O)CNC(C)(C)C)cc1` (centres undefined), the melting point was 99 to 100 °C.
Work on `C[C@H]1CC[C@H]2C(C)(C)C(=NN3CCOCC3)CC[C@]23Oc2c(c(O)cc4c2CNC4=O)C[C@]13C` yielded a melting point of 202 to 205 °C.
For `CC(C)N1C(=O)c2ccccc2Oc2ccccc21`, the melting point was 102 to 103 °C.
Work on `O=C1Nc2cc3c(cc2C12COc1cc4c(cc12)CCO4)OCCO3` (centres undefined) yielded a melting point of over 250 °C.
Compound `COc1ccc(C(C)(C)O)cc1CN[C@H]1CN2CC[C@H]1[C@H](C(=O)O)[C@@H]2C(c1ccccc1)c1ccccc1` has a melting point of 150 to 153 °C.
Compound `CC(C)CN1C2=NCCN2C(=O)C(N=O)=C1N` has a melting point of 203 to 205 °C.
Work on `COc1cc2c(cc1C(O)c1ccccc1)C=C2C(=O)O` (centres undefined) yielded a melting point of 143 to 146 °C.
Compound `C#CCOCCn1cnc2c(N)nc3ccccc3c21` has a melting point of 225 to 227 °C.
`CCOCc1nc2c(N)nc3cc(-c4ccsc4)ccc3c2n1CC(C)(C)O` showed a melting point of 204 to 205 °C.
For `COc1cc(OC)nc(NC(=O)NS(=O)(=O)c2ccccc2CO)n1`, the melting point was 149 to 150 °C.
Work on `CC(C)(C)OC(=O)Nc1ccc(C#Cc2ccccc2Cl)cc1[N+](=O)[O-]` yielded a melting point of 152 to 155 °C.
In the case of `CCOC(=NC(=O)c1cc(C(F)(F)F)cc(C(F)(F)F)c1)N1Cc2ccccc2-c2ccccc2C1`, the melting point is reported as 129 to 130 °C.
`CCOC(=O)c1cc(=O)c2c3c(ccc2o1)C(=O)CC(C(=O)OC)=N3` showed a melting point of 166 to 170 °C.
Work on `Cc1ccccc1Nc1c(C(=O)C(C)C)cnc2c(CO)cccc12` yielded a melting point of 116 to 118 °C.
With `COC(=O)c1cc(-c2ccccc2)cc2c1C(C)(C)CCC2(C)C` the melting point was 118 °C.
For `CCOCc1cc2ccccc2oc1=Nc1ccc(OC)cc1`, the melting point was 78 to 79 °C.
In the case of `CS(=O)(=O)c1cccnc1Oc1ccc(Cl)c(Cl)c1`, the melting point is reported as 95 to 96 °C.
Compound `Cc1oc(-c2ccccc2)nc1COc1ccc2oc(CCCc3nnn[nH]3)cc2c1` has a melting point of 136 to 137 °C.
Work on `COc1ccc(S(=O)(=O)Nc2c(C)cc(C#N)cc2C(=O)O)cc1` yielded a melting point of 175 °C.
For `CC(=O)C1CNCc2c1[nH]c1cnc3cc(Cl)ccc3c21` (centres undefined), the melting point was 235 to 237 °C.
Work on `COc1cccc(NC(=O)NCc2cccc3c2C(=O)N(C2CCC(=O)NC2=O)C3=O)c1` (centres undefined) yielded a melting point of 160 to 162 °C.
Compound `CC(=NOC(=O)Nc1ccccc1)C(C)N(C(=O)CCl)c1c(C)cccc1C` (centres undefined) has a melting point of 115 to 117 °C.
